In patent US10676438B2, “KCNQ2-5 channel activator” (Ono Pharmaceutical Co., Ltd., priority 2014, dated 2020):
Converted amounts (≈) assume the structure as drawn.

What was measured:
[1] = Evaluation of stability in human liver microsome; type: in vitro ADME; details: human, 15 min, 5 μmol/L, pH 7.4
Description: A test compound (10 mmol/L DMSO solution, 5 μL) was diluted with 50% acetonitrile aqueous solution (195 μL) to prepare 0.25 mmol/L solution.
To a reactor vessel which had been warmed to 37° C. in advance, 0.5 mg/mL of human liver microsome (Xenotech) and 245 μL of 0.1 M phosphate buffer solution (pH 7.4) including NADPH-Co-factor (BD Biosciences) were added, followed by preincubation for five minutes. Then, the above-mentioned test compound solution (5 μL) was added so as to start reaction (final concentration: 5 μmol/L). Immediately after the start, 20 μL was harvested and added to 180 μL of acetonitrile including an internal standard substance (warfarin) to stop the reaction. This solution (20 μL) was stirred with 180 μL of 50% acetonitrile aqueous solution on a plate equipped with a deproteinization filter. Then, the resulting mixture solution was subjected to suction filtration. The filtrate was adopted as a standard sample.
The above-mentioned reaction solution was incubated at 37° C. for 15 minutes, and 20 μL of the solution was added to 180 μL of cooled acetonitrile (including warfarin that is an internal standard substance) to stop the reaction. This solution (20 μL) was stirred with 180 μL of 50% acetonitrile aqueous solution on a plate equipped with a deproteinization filter, and then the resulting mixture solution was subjected to suction filtration. The filtrate was adopted as a reaction sample.
Residual rate (%) was obtained as follows: 1 μL of the sample solution was infused into LC-MS/MS (Discovery Max manufactured by Thermo Scientific), and a quotient obtained by dividing a peak area ratio of the reaction sample (peak area of test compound/peak area of internal standard substance) was divided by the peak area ratio of the standard sample was multiplied by 100.

Human KCNQ2/3 channel = Human KCNQ2/3 channel (Homo sapiens (Human), UniProt O43525+O43526); test: Opening action with respect to KCNQ2/3 channel by depolarization stimulation (thallium influx, FLIPR); type: cell-based; details: concentration giving 50% of maximum reaction of retigabine (10 μM); human KCNQ2/3 expression CHO-DHFR- cells; 5 mM potassium and 0.5 mM thallium; read-out: KCNQ2/3 ECrtg50
Description: Human KCNQ2/3 expression cells (CHO-DHFR-cells) were seeded in each well of 384 well plate (collagen-coated, black, clear bottom) at 0.5×10^4 cells/50 μL per well, and cultured in a MEM ALPHA medium (containing 10 vol % inactivated (56° C., 30 min) Fetal Bovine Serum and 100 IU/mL Penicillin—100 μg/mL Streptomycin—2 mM L-Glutamine) at 37° C. in 5% CO2 for 18 to 24 hours. The medium in the plate was removed. Then, incubation (room temperature, 60 minutes, light-shielded) was carried out in a loading buffer (prepared by the method described in the manual of FluxOR Thallium Detection Kit (Invitrogen, F10016, F10017)). KCNQ2/3 channel opening action (thallium influx into cells) by the depolarization stimulation (5 mM potassium and 0.5 mM thallium) was measured by FLIPR TETRA (Molecular Devices). The compound of the present invention had been treated five minutes before the depolarization stimulation, and the reaction induced by the depolarization stimulation was measured over time for 180 seconds. The channel opening action of the compound of the present invention was evaluated based on the change amount of the fluorescence intensity from the time before the depolarization stimulation to the time after the passage of 180 seconds. Thus, the concentration (ECrtg50) satisfying 50% of the fluorescence intensity change of maximum reaction (at the time of 10 μM-treatment) of retigabine under this experiment condition was calculated.

[2] = Solubility test (DMSO precipitation method, Pharmacopoeia of Japan elution test second solution); type: physicochemical; details: aqueous buffer, kinetic from dmso stock; Pharmacopoeia of Japan elution test second solution pH=6.8, room temperature, five hours; quantitation range 5 to 100 μM
Description: A calibration curve solution was prepared by diluting a test substance (10 mM DMSO solution) with acetonitrile and adding acetonitrile including an internal standard substance (candesartan) so as to be 0.1, 0.4, and 2 μM.
Sample solution was prepared as follows: 5 μL of the compound of the present invention (10 mM DMSO solution) was added to 495 μL of the Pharmacopoeia of Japan elution test second solution (pH=6.8), and the resulting mixture was stirred at room temperature for five hours. Then, the solution was placed into a solubility filter plate and subjected to suction filtration. The filtrate (20 μL) was diluted with acetonitrile, followed by adding acetonitrile including an internal standard substance ([…]).
The calibration curve and sample solutions in the amount of 5 μL were infused into LC-MS/MS (Discovery Max manufactured by Thermo Scientific) and subjected to quantitation (quantitation range: 5 to 100 μM).

Compound	Residual rate [1] [%]	EC50 (Human KCNQ2/3 channel) [nM]	solubility at 5 h [2] [µM]
CC(O)(c1cc(Cl)c(NC(=O)NCc2cc3cc(F)ccc3[nH]2)c(Cl)c1)C(F)(F)F (centres unmarked) [Example 5 (13), 1-[2,6-dichloro-4-(1,1,1-trifluoro-2-hydroxy-2-propanyl)phenyl]-3-[(5-fluoro-1H-indole-2-yl)methyl]urea]	75	600	81 (≈ 37.6 µg/mL)
CC(O)(c1cc(Cl)c(NC(=O)NC[C@@H]2CCCO2)c(Cl)c1)C(F)(F)F (stereo partly drawn) [Example 5 (15), 1-[2,6-dichloro-4-(1,1,1-trifluoro-2-hydroxy-2-propanyl)phenyl]-3-[(2S)-tetrahydro-2-furanylmethyl]urea]	97	2300	90 (≈ 36.1 µg/mL)
CC(O)(c1cc(Cl)c(NC(=O)NCCC(F)(F)F)c(Cl)c1)C(F)(F)F (centres unmarked) [Example 5 (19), 1-[2,6-dichloro-4-(1,1,1-trifluoro-2-hydroxy-2-propanyl)phenyl]-3-(3,3,3-trifluoropropyl)urea]	100	100	76 (≈ 31.4 µg/mL)
C[C@@H](NC(=O)Nc1c(Cl)cc(C(C)(O)C(F)(F)F)cc1Cl)C1CC1 (stereo partly drawn) [Example 5 (20), 1-[(1R)-1-cyclopropylethyl]-3-[2,6-dichloro-4-(1,1,1-trifluoro-2-hydroxy-2-propanyl)phenyl]urea]	91	500	100 (≈ 38.5 µg/mL)
Cc1cc(C(O)C(F)(F)F)ccc1NC(=O)NCc1ccc(C(F)(F)F)cn1 (centres unmarked) [Example 60, 1-[2-methyl-4-(2,2,2-trifluoro-1-hydroxyethyl)phenyl]-3-{[5-(trifluoromethyl)-2-pyridinyl]methyl}urea]	98	1700	–
CC(O)(c1cc(Cl)c(NC(=O)NCc2ccc(C(F)(F)F)cn2)c(Cl)c1)C(F)F (centres unmarked) [Example 75, 1-[2,6-dichloro-4-(1,1-difluoro-2-hydroxy-2-propanyl)phenyl]-3-{[5-(trifluoromethyl)-2-pyridinyl]methyl}urea]	100	400	–

Other lines, results leading:

Residual rate [1] [%]	EC50 (Human KCNQ2/3 channel) [nM]	solubility at 5 h [2] [µM]	Compound
93	200	–	C[C@@](O)(c1cc(Cl)c(NC(=O)NCc2ccc(C#N)cc2)c(Cl)c1)C(F)(F)F [Example 22 (15), 1-(4-cyanobenzyl)-3-{2,6-dichloro-4-[(2R)-1,1,1-trifluoro-2-hydroxy-2-propanyl]phenyl}urea]
94	4	–	C[C@@](O)(c1cc(Cl)c(NC(=O)NCc2ccc(Oc3ccc(F)cc3)cc2)c(Cl)c1)C(F)(F)F [Example 22 (16), 1-{2,6-dichloro-4-[(2R)-1,1,1-trifluoro-2-hydroxy-2-propanyl]phenyl}-3-[4-(4-fluorophenoxyl)benzyl]urea]
73	60	40 (≈ 20.2 µg/mL)	C[C@](O)(c1cc(Cl)c(NC(=O)NCc2ccc(OCC(F)(F)F)nc2)c(Cl)c1)C(F)(F)F [Example 25 (6), 1-{2,6-dichloro-4-[(2S)-1,1,1-trifluoro-2-hydroxy-2-propanyl]phenyl}-3-{[6-(2,2,2-trifluoroethoxy)-3-pyridinyl]methyl}urea]
